Measurements: patent publication US8071620B2, “Carbamic acid compounds comprising a bicyclic heteroaryl group as HDAC inhibitors” (Topotarget UK Limited, priority 2003, dated 2011)
Where a name gives a salt, the structure may show the parent alone.

What was measured:
JURKAT human T-cell line = assay: Secondary assay: cell proliferation inhibition WST-1, Jurkat; format: cell-based; conditions: Jurkat cells, 48 h
Protocol: (§1) Compounds with HDAC inhibition activity, as determined using the primary assay, were subsequently evaluated using secondary cell-based assays. The following cell lines were used:
JURKAT—Human T-cell line (ATCC no. TIB-152).
(§2) Cells were cultured, exposed to candidate compounds, and incubated for a time, and the number of viable cells was then assessed using the Cell Proliferation Reagent WST-1 from Boehringer Mannheim (Cat. No. 1 644 807), described below.
(§3) Cells were plated in 96-well plates at 3-10×10^3 cells/well in 100 μL of culture medium. The following day, different concentrations of candidate compounds were added and the cells incubated at 37° C. for 48 h. Subsequently, 10 μL/well of WST-1 reagent was added and the cells reincubated for 1 hour. After the incubation time, absorbance was measured.
(§4) WST-1 is a tetrazolium salt which is cleaved to formazan dye by cellular enzymes. An expansion in the number of viable cells results in an increase in the overall activity of mitochondrial dehydrogenases in the sample. This augmentation in the enzyme activity leads to an increase in the amount of formazan dye formed, which directly correlates to the number of metabolically active cells in the culture. The formazan dye produced is quantified by a scanning multiwell spectrophotometer by measuring the absorbance of the dye solution at 450 nm wavelength (reference wavelength 690 nm).
(§5) Percent activity (% activity) in reducing the number of viable cells was calculated for each test compound as: % activity={(S^c−B)/(S°−B)}×100 wherein S^c denotes signal measured in the presence of the compound being tested, S° denotes signal measured in the absence of the compound being tested, and B denotes the background signal measured in blank wells containing medium only. […] IC50 values were calculated using the software package Prism 3.0 (GraphPad Software Inc., San Diego, Calif.), setting top value at 100 and bottom value at 0.

[1] = tested on: K11 HPV E7 transformed human keratinocyte line; assay: Secondary assay: cell proliferation inhibition WST-1, K11; format: cell-based; conditions: K11 cells, 48 h
Protocol: as §1
K11—HPV E7 transformed human keratinocyte line provided by Pidder Jansen-Duerr, Institut für Biomedizinische Alternsforschung, Innsbruck, Austria.
as §3, §4, §5

HDAC (HeLa cell extract) = assay: Primary assay: deacetylase activity (HDAC inhibition), HeLa cell extract; set-up: species or system human; conditions: HeLa cell extract as HDAC source; read-out: Biochemical Assay Data HDAC Inhibition (IC50) HeLa
Source text: Briefly, this assay relies on the release of radioactive acetate from a radioactively labelled histone fragment by the action of HDAC enzyme. Test compounds, which inhibit HDAC, reduce the yield of radioactive acetate. Signal (e.g., scintillation counts) measured in the presence and absence of a test compound provide an indication of that compound's ability to inhibit HDAC activity. Decreased activity indicates increased inhibition by the test compound.
The histone fragment was an N-terminal sequence from histone H4, and it was labelled with radioactively labelled acetyl groups using tritiated acetylcoenzyme A (coA) in conjunction with an enzyme which is the histone acetyltransferase domain of the transcriptional coactivator p300. […] The acetylated peptide was then separated from free acetyl coA by size exclusion chromatography on Sephadex G-15 (Sigma G-15-120), using distilled H2O as the mobile phase.
After purification of the radiolabelled histone fragment, it was incubated with a source of HDAC (e.g., an extract of HeLa cells (a rich source of HDAC), recombinantly produced HDAC1 or HDAC2) and any released acetate was extracted into an organic phase and quantitatively determined using scintillation counting. By including a test compound with the source of HDAC, that compound's ability to inhibit the HDAC was determined.
Alternatively, the activity of the compounds as HDAC inhibitors was determined using a commercially available fluorescent assay kit: (Fluor de Lys™, BioMol Research Labs, Inc., Plymouth Meeting, USA).
Extensive comparative studies have shown that Primary Assay (1) and Primary Assay (2), discussed above, yield equivalent results. Primary Assay results reported herein are (a) exclusively from (1); (b) exclusively from (2); or (c) from both (1) and (2).
The HeLa cell extract was made from HeLa cells (ATCC Ref. No. CCL-2) by freeze-thawing three times in 60 mM TrisCl pH 8.0, 450 mM NaCl, 30% glycerol. Two cell volumes of extraction buffer were used, and particulate material was centrifuged out (20800 g, 4° C., 10 min). The supernatant extract having deacetylase activity was aliquoted and frozen for storage.
Percent activity (% activity) for each test compound was calculated as: % activity={(S^c−B)/(S°−B)}×100 wherein S^c denotes signal measured in the presence of enzyme and the compound being tested, S° denotes signal measured in the presence of enzyme but in the absence of the compound being tested, and B denotes the background signal measured in the absence of both enzyme and compound being tested.

HeLa cells = assay: Secondary assay: cell proliferation inhibition WST-1, HeLa; format: cell-based; conditions: Homo sapiens, 48 h
Protocol: as §1
HeLa—Human cervical adenocarcinoma cell line (ATCC ref. No. CCL-2).
as §2, §3, §4, §5

Row | melting point | IC50 (HDAC (HeLa cell extract)) [nM] | IC50 (HeLa cells) [nM] | Molecule | other results
1 | 200 to 202 °C (dec.) |  |  | O=C(/C=C/c1cnc2ccccc2n1)NO (as salt: sodium) [PX118840, (E)-3-(2-Quinoxalinyl)-N-hydroxy-2-propenamide sodium salt] | 
2 |  |  |  | Nc1ccccc1NC(=O)c1ccc(CNC(=O)OCc2cccnc2)cc1 [MS-275] | IC50 (JURKAT human T-cell line): 365 nM; IC50 [1]: 9160 nM
3 | 159 to 160 °C | 250 | 27200 | O=C(CCc1ccc2ccccc2n1)NO [PX118828, N-Hydroxy-3-(2-quinolinyl)propanamide] | 
4 |  | 32 | 1700 | O=C(/C=C/c1nc2ccccc2o1)NO [PX118835, (E)-3-(1,3-Benzoxazol-2-yl)-N-hydroxy-2-propenamide] | 
5 | 200 to 202 °C (dec.) | 40 | 2400 | Cc1ccc2nc(/C=C/C(=O)NO)ccc2c1 [PX118839, (E)-3-(6-Methyl-2-quinolinyl)-N-hydroxy-2-propenamide] | 
6 |  | 42 | 2100 | O=C(/C=C/c1cnc2ccccc2n1)NO [PX118840, (E)-3-(2-Quinoxalinyl)-N-hydroxy-2-propenamide sodium salt] | 
7 | 199 to 201 °C | 609 | 1300 | Cc1ccc2nc(/C=C/C(=O)NO)cc(C)c2c1 [PX118864, (E)-3-(4,6-Dimethyl-2-quinolinyl)-N-hydroxy-2-propenamide] | 
8 | 204 to 206 °C | 218 | 1400 | COc1ccc2nc(/C=C/C(=O)NO)ccc2c1Br [PX118865, (E)-3-(5-Bromo-6-methoxy-2-quinolinyl)-N-hydroxy-2-propenamide] | 
9 | 170 to 172 °C |  | 33100 | Cc1nc2ccccc2nc1/C=C/C(=O)NO [PX118866, (E)-N-Hydroxy-3-(3-methyl-2-quinoxalinyl)-2-propenamide] | 
10 | 180 to 182 °C | 262 | 3900 | O=C(/C=C/c1ccc2cccc(OCc3ccccc3)c2n1)NO [PX118867, (E)-3-[8-(Benzyloxy)-2-quinolinyl]-N-hydroxy-2-propenamide] | 
11 | 191 to 193 °C | 38 | 1500 | Cc1ccc2ccc(/C=C/C(=O)NO)nc2c1 [PX118869, (E)-N-Hydroxy-3-(7-methyl-2-quinolinyl)-2-propenamide] | 
12 | 204 to 206 °C | 68 | 2700 | O=C(/C=C/c1ccnc2ccccc12)NO [PX118885, (E)-3-(4-Quinolinyl)-N-hydroxy-2-propenamide] | 
13 |  | 44 | 2600 | O=C(/C=C/c1ccc2cc(F)ccc2n1)NO [PX118886, (E)-3-(6-Fluoro-2-quinolinyl)-N-hydroxy-2-propenamide] | 
14 | 172 to 175 °C | 28 | 1800 | COc1ccc2nc(/C=C/C(=O)NO)ccc2c1 [PX118887, (E)-N-Hydroxy-3-(6-methoxy-2-quinolinyl)-2-propenamide] | 
15 | 163 to 165 °C | 30 | 7200 | O=C(/C=C/c1nc2ccccc2s1)NO [PX118915, (E)-3-(1,3-Benzothiazol-2-yl)-N-hydroxy-2-propenamide] | 
16 | 205 to 207 °C | 197 | 3700 | O=C(/C=C/c1cnc2ccccc2c1)NO [PX118987, (E)-N-Hydroxy-3-(3-quinolinyl)-2-propenamide] | 
17 | 225 to 227 °C |  |  | COc1ccc2nc(C)ccc2c1/C=C/C(=O)NO [PX119038, (E)-N-Hydroxy-3-(6-methoxy-2-methyl-5-quinolinyl)-2-propenamide] | 
18 |  | 265 | 14100 | O=C(/C=C/c1ccc2ncccc2c1)NO [PX119039, (E)-N-Hydroxy-3-(6-quinolinyl)-2-propenamide] | 
19 | 203 to 205 °C | 111 | 6700 | O=C(/C=C/c1ccc2cccnc2c1)NO [PX119068, (E)-N-Hydroxy-3-(7-quinolinyl)-2-propenamide] | 
20 | 159 to 160 °C |  |  | O=C(/C=C/c1cccc2cccnc12)NO [PX119071, (E)-3-(8-Quinolinyl)-N-hydroxy-2-propenamide] | 
21 | 211 to 213 °C |  | 17800 | O=C(/C=C/c1cccc2ncccc12)NO [PX119088, (E)-N-Hydroxy-3-(5-quinolinyl)-2-propenamide] | 
22 | 213 to 214 °C |  |  | O=C(CCc1nc2ccccc2[nH]c1=O)NO [PX119094, N-Hydroxy-3-(3-oxo-3,4-dihydro-2-quinoxalinyl)propanamide] | 
23 | 165 to 167 °C |  | 22300 | O=C(CCc1ccc2cccc(O)c2n1)NO [PX119095, N-Hydroxy-3-(8-hydroxy-2-quinolinyl)propanamide] | 
24 | 160 to 162 °C | 330 |  | O=C(/C=C/C=C/c1ccc2ccccc2n1)NO [PX119135, (2E,4E)-N-Hydroxy-5-(2-quinolinyl)-2,4-pentadienamide] | 
25 | 192 to 194 °C | 619 |  | Cc1ccc2nc(CCC(=O)NO)cc(C)c2c1 [PX119138, 3-(4,6-Dimethyl-2-quinolinyl)-N-hydroxypropanamide] | 
26 | 202 to 204 °C | 186 |  | O=C(NO)c1ccc(OCc2ccc3ccccc3n2)cc1 [PX119141, N-Hydroxy-4-(2-quinolinylmethoxy)benzamide] | 
27 |  |  |  | oxamflatin | IC50 (JURKAT human T-cell line): 170 nM

Row | Molecule | melting point | IC50 (HDAC (HeLa cell extract)) [nM] | IC50 (HeLa cells) [nM] | other results
28 | O=C(/C=C/c1ccc2ccccc2n1)NO [PX117449, (E)-N-Hydroxy-3-(2-quinolinyl)-2-propenamide] | 159.5 to 160.5 °C | 35 | 1800 | IC50 (JURKAT human T-cell line; Homo sapiens): 1000 nM; IC50 ([1]; Homo sapiens, Keratinocyte): 12400 nM
29 | CC(/C=C/C(=O)NO)=C\[C@@H](C)C(=O)c1ccc(N(C)C)cc1 [TSA, trichostatin A] |  |  | 350 | IC50 (JURKAT human T-cell line; Homo sapiens): 42 nM; IC50 ([1]; Homo sapiens, Keratinocyte): 380 nM
